The values below come from publication PMC10454396 (International Journal of Molecular Sciences, 2023).

Values after ≈ are worked out from the molar mass of the structure shown.

Details of data set [1]: method as in unpublished data from GBF. The following applies: ref unpublished data from GBF; cited from earlier work.
A further data set deals with CYP3A4. The conditions noted are these: cited from earlier work.
Data set [2] is classed as in vitro ADME. The following applies: mouse plasma. The protocol: (§1) To determine stability in plasma, a similar setup as for the determination of metabolic stability was applied using pooled mouse, human or rat plasma (Neo Biotech, Nanterre, France). Samples were taken by mixing aliquots with four volumes of ice cold acetonitrile containing internal standard (12.5 nM diphenhydramine). The plasma stability of procain, propantheline and diltiazem were determined in parallel to confirm the enzymatic activity.

A short description of data set [3]: Plasma protein binding (RED), rat plasma. It is filed as in vitro ADME. The following applies: Wistar, pooled plasma, pH 7.4, rat plasma. On the procedure:
(§2) Plasma protein binding was determined using the Rapid Equilibrium Dialysis (RED) system (Thermo Fisher Scientific, Waltham, MA, USA). The compound was diluted in pooled murine (CD-1)/human or Wistar rat plasma (Neo Biotech, Nanterre, France) to 10 µM and added to the respective chamber according to the manufacturer’s protocol, followed by addition of PBS pH 7.4 to the opposite chamber. Samples were taken immediately after addition to the plate as well as after 2, 4 and 5 h by mixing 10 µL with 80 µL ice-cold acetonitrile containing 12.5 nM diphenhydramine as internal standard, followed by addition of 10 µL plasma to samples taken from PBS and vice versa. Samples were stored on ice until the end of the incubation and precipitated protein was removed by centrifugation (15 min, 4 °C, 4000× g, 2 centrifugation steps). Concentration of the remaining test compound at the different time points was analyzed by HPLC-MS/MS (TSQ Altis Plus, Thermo Fisher, Dreieich, Germany). The amount of compound bound to protein was calculated using the equation PPB [%] = 100 − 100 × (amount in buffer chamber/amount in plasma chamber).

Data set [4] is described as follows: Phase I metabolic stability, human liver microsomes. The following applies: pH 7.4. The class given is in vitro ADME. The protocol: (§3) For the evaluation of phase I metabolic stability, the compound (1 µM) was incubated with 0.5 mg/mL pooled mouse/rat liver microsomes (Xenotech, Kansas City, MO, USA) or human liver microsomes (Corning, NY, USA), 2 mM NADPH and 10 mM MgCl2 at pH 7.4 for 120 min at 37 °C. The metabolic stability of testosterone, verapamil and ketoconazole were determined in parallel to confirm the enzymatic activity of mouse/rat liver microsomes; for human liver microsomes testosterone, diclofenac and propranolol were used. The incubation was stopped after defined time points by precipitation of aliquots of the assay mixture with two volumes of ice-cold acetonitrile containing internal standard (15 nM diphenhydramine). Samples were stored on ice until the end of the incubation and precipitated protein was removed by centrifugation (15 min, 4 °C, 4000× g).

A short description of data set [5]: Plasma protein binding (RED), mouse plasma. The following applies: CD-1, mouse, pooled plasma, pH 7.4, mouse plasma. The class given is in vitro ADME. On the procedure: as §2
A further data set can be described thus: in vitro. The conditions noted are these: read-out: Plasma Stability t1/2. It is filed as in vitro ADME. On the procedure:
as §1

Data set [6] concerns Staphylococcus aureus Newman mCherry. As to the kind of experiment: MIC, broth microdilution, mCherry-expressing S. aureus Newman. The class given is cell-based. The following applies: Staphylococcus aureus, NEWMAN. On the procedure:
(§4) Cefazolin was obtained from Acros Organics. Ciprofloxacin hydrochloride, linezolid and vancomycin hydrochloride were obtained from Sigma-Aldrich (St. Louis, MO, USA). Tetracycline hydrochloride was obtained from Alfa Aesar. Sorangicin A was provided by HZI, Braunschweig. Stock solutions were prepared in Milli-Q water or dimethyl sulfoxide (DMSO, Sigma-Aldrich). Minimum inhibitory concentrations (MICs) were determined in cation-adjusted Mueller-Hinton broth (MHB2) using the broth microdilution method as recommended by the Clinical and Laboratory Standards Institute (CLSI). The MIC was defined as the lowest concentration of the antibiotic causing complete inhibition of visible growth of the microorganism (CLSI, 2017).
(§5) 1. In vitro characterization of mCherry expressing Staphylococcus aureus Newman
(§6) 1.1 Minimum inhibitory concentration
(§7) Table S1. Antibiotic susceptibility profile of Staphylococcus aureus Newman. WT: wild type. […]
A general note: In broth dilution the organism is exposed to a series of concentrations in liquid medium.

A further data set relates to zebrafish embryos. As to the kind of experiment: Toxicity of antimicrobials on zebrafish embryos. It is filed as in vivo, Danio rerio. On the procedure:
Toxicity of antibiotics was assessed by aquatic exposure and microinjection. For evaluation of the maximum tolerated concentration (MTC) by aquatic exposure, embryos were dechorionated at 30 hpf and placed in a flat-bottom 96-well plate (Sarstedt) with one embryo per well. Excess medium was removed and 150 µL of compound dilutions (in 0.3× Danieau’s, maximum of 1% DMSO) were added. For each antibiotic, a range of concentrations was investigated. Ten embryos were used per concentration and ten additional embryos incubated in fish medium without any antibiotic served as negative control. Microinjection of antibiotics into the caudal vein (CV) and the yolk sac was performed as described earlier. PBS-injected embryos served as negative control. Exposed embryos were maintained at 28 °C throughout the whole experiment. Embryos were monitored daily under a stereo microscope (Stemi 508, Zeiss) in order to record survival as well as anomalies, pigmentation, heartbeat and locomotor responses. An embryo was considered dead when no heart beat could be observed.

The next data set has as its system S. aureus. Set-up: method as in unpublished data from GBF. The following applies: former in vivo efficacy studies; ref unpublished data from GBF; cited from earlier work.
For data set [7], the system named is Staphylococcus aureus Newman WT. As to the kind of experiment: MIC, broth microdilution, S. aureus Newman wild type. The class given is cell-based. The following applies: Staphylococcus aureus, NEWMAN. The protocol: as §4, §5, §6, §7
Data set [8] in a line: Phase I metabolic stability, rat liver microsomes. It is filed as in vitro ADME. The conditions noted are these: pooled liver microsomes, pH 7.4. On the procedure: as §3
The mark [9] stands for this setting: 10 µM, read-out: PPB (converted).

By microsomal CLint is commonly meant the capacity of the preparation to metabolise the compound, expressed as a volume cleared per time. The term MIC denotes the least concentration at which growth counts as inhibited. High values mean a less susceptible organism, low ones a more susceptible organism. Regarding `C/C(=C\[C@H](C)CCCCC(=O)O)[C@@H]1O[C@@H]2C=C[C@H]1OC(=O)\C=C/C=C\C=C\[C@H]1O[C@@H]3C[C@H]1O[C@@H](/C=C/C[C@H]1O[C@H](C[C@H](O)[C@H]1C)[C@@H](O)[C@@H](O)/C=C/CC/C=C/C2)[C@@H]3C` [sorangicin A], the “outcome in experimental infection models in rats” value in data set [1] is “successful”. Also, the CYP3A4 induction entry with CYP3A4 was “only moderate CYP3A4 induction”. In data set [2], the “plasma concentration after 4 h incubation” value was “below the limit of detection”. In addition, the fraction unbound at 10 µM was 0.112 in data set [3] (setting [9]), above 0.1 in data set [3] (read-out: free fraction), 0.121 in data set [5] (setting [9]) and above 0.1 in data set [5] (read-out: free fraction). For the same molecule, the microsomal CLint at 1 µM in [4] came to 90.4 ± 16.5 µL/min/mg; in data set [8], 239 ± 155 µL/min/mg. The half-life in the data set “in vitro” (human plasma) is above 4 h. For the same molecule, the half-life at 1 µM in “in vitro” (rat plasma) is above 4 h. The MIC in [6] and in data set [7] was 0.0625 µg/mL (≈ 0.0774 µM) throughout. For the same molecule, the “reduction in embryo survival with respect to control (1% DMSO)” value in the data set on zebrafish embryos (long-term aquatic exposure, 200 µg/mL) was 10%. For the same molecule, the “tolerability of injection dose” value in the data set on zebrafish embryos (microinjection 30 mg/kg) is “well-tolerated”. For the same molecule, the well-tolerated concentration entry in the data set with zebrafish embryos (short- and long-term aquatic exposure) is “up to 100 µg/mL”. In addition, in the data set on S. aureus, the “protective effect in mouse models of S. aureus infection” value is on record as “failed to show a protective effect”.
